Assay [1] relates to lipase in the small intestines. The note with it: background statement; cited from earlier work.
Assay [2] deals with GABAB receptor. As to the kind of experiment: Expression of GABAB receptor in the hypothalamus by Western blotting. Format: in vivo, rat. The note with it: rats administered anthocyanin orally, 40 days, versus control; Western blot densitometry. As for the experimental part:
To examine the effect of an obesity prevention and treatment agent on the expression of GABAB receptor, the animals maintained as in Example 1 were collectively sacrificed at 10:00 AM 40 days after the oral administration, and the hypothalamus was excised from each of them. The hypothalamic sample was homogenized in 0.2 M PBS containing a protease inhibitor cocktail. Protein levels were measured using a Bio-Rad protein analysis solution, and after two rounds of ultracentrifugation at 4° C. and 12,000 rpm for 20 min, the supernatants containing proteins were separated. […] This membrane was blocked with 5% (v/v) skim milk to reduce non-specific binding, and incubated with a primary goat anti-GABABR1 antibody (1:200; Santa Cruz Biotechnology, Santa Cruz, Calif., USA) and an anti-beta-actin antibody for quantitative comparison, followed by immune reaction with a secondary HRP (horseradish peroxidase)-conjugated anti-goat and anti-rabbit IgG (1:1000; Santa Cruz Biotechnology, Santa Cruz, Calif., USA). Protein levels were determined by chemiluminescence using ECL-detecting reagent (Amersham Pharmacia Biotech, Western blotting detection reagents). Western blots on the X-ray film were analyzed by densitometry using computer-based Sigma Gel (SPSS Inc. Chicago, USA), and the results are shown in FIG. 3.
(In general: In western blotting, separated proteins are transferred to a membrane and probed.)

The subject of assay [3] is PKA-α. As to the kind of experiment: Expression of PKA-α in the hypothalamus by Western blotting. Type of assay: in vivo, rat. The note with it: oral anthocyanin 24 mg, 40 days, versus control; Western blot.
Assay [4] relates to epididymal white adipose tissue. As to the kind of experiment: Epididymal white adipose tissue adipocyte number per unit area (hematoxylin-eosin staining). Conditions: epididymal WAT, 40 days, control 18.75. Type of assay: in vivo, rat. As for the experimental part:
For hematoxylin-eosin staining, an epididymal white adipose tissue (WAT) was fixed at 4° C. for 72 hrs in ice-chilled 1× PBS containing 4% para-formaldehyde, and immersed at 4° C. for 72 hrs in 20% sucrose sucrose phosphate buffer for cryoprotection. The fixed tissue was frozen with O.C.T compound (A. O. USA), and 10 μm coronal sections were made in coronal planes (Leica cryostat CM 3050, Germany). The sections were mounted on a probe-on, positively charged slide at room temperature and stored at −70° C. until use.
The animals bred as in Example 1 were collectively sacrificed at 10:00 AM 40 days after the oral administration, and epididymal white adipose tissue (WAT) was excised from each sacrificed animal and used for comparison of obesity. The epididymal WAT was fixed at 4° C. for 72 hrs in ice-chilled 1× PBS containing 4% para-formaldehyde, and immersed at 4° C. for 72 hrs in a 20% sucrose phosphate buffer for cryoprotection. The fixed tissue was frozen with O.C.T compound (A. O. USA), and 10 μm coronal sections were made in coronal planes (Leica cryostat CM 3050, Germany). The sections were mounted on probe-on, positively charged slides and thawed at room temperature for 3 hrs. […] Cover slips were mounted on the slides which were observed under a […] at 400× magnification.

Assay [5] is described as follows: Body weight change and daily food uptake in rats orally administered anthocyanin for 40 days. Format: in vivo, rat. Conditions: for weight increase: male Sprague-Dawley rats, control 79.33 g; for weight increase / weight at end of period: 40 days; for weight at end of period: control 116.33 g. As for the experimental part:
For use in assay for the preventive and therapeutic effect of anthocyanin on obesity, male Sprague-Dawley rats, 60 days old (the Experimental Animal Breeding Center of the Gyeongsang National University, Jinju, Korea)) were divided groups of four which were then orally administered with anthocyanin at a dose of 6 mg and 24 mg, respectively, or not administered with anthocyanin for a control. They were maintained for 40 days in a temperature-controlled condition with lighting 06:00-20:00. While being maintained, the rats in each group were monitored for weight change and daily food uptake, and the results are shown in FIG. 1.

The test system of assay [6] is neuropeptide Y. Description: Expression of neuropeptide Y in the hypothalamus by Western blotting. Format: in vivo, rat. The note with it: oral anthocyanin 24 mg, 40 days, versus control; Western blot.
The test system of assay [7] is p-CREB. Description: Expression of p-CREB in the hypothalamus by Western blotting. Type of assay: in vivo, rat. The note with it: oral anthocyanin 24 mg, 40 days, versus control; Western blot.

Results on 2 molecules are retold here after patent US20140162968A1, “METHOD FOR SCREENING OF AGENT FOR TREATING OR PREVENTING OBESITY” (priority 2011, published 2014).

Turning to `CCCCCCCCCCC[C@@H](C[C@@H]1OC(=O)[C@H]1CCCCCC)OC(=O)[C@H](CC(C)C)NC=O` [Orlistat], the “reduction of fat absorption” value in assay [1] was “about 30%”.
For the molecule anthocyanin, in assay [2], the “expression level of GABAB receptor in the hypothalamus” value is listed as “increased”. Moreover, the “expression level of PKA-α in the hypothalamus” value in assay [3] is on record as “decrease”. The figures for the “number of adipocytes per unit area” value in assay [4] (oral anthocyanin 6 mg) and in assay [4] (oral anthocyanin 24 mg) were 22.47 cells/250 mm^2 and 22.8 cells/250 mm^2, respectively. Besides, the weight increase was found to be 69 g in assay [5] (oral anthocyanin 6 mg) and 69.67 g in assay [5] (oral anthocyanin 24 mg). For the same molecule, the “weight at end of period” value was 101.33 g in assay [5] (oral anthocyanin 6 mg, from 32.33 g) and 98 g in assay [5] (oral anthocyanin 24 mg, from 28.33 g). The daily food uptake in assay [5] (oral anthocyanin 24 mg, control 20.03 g) is 16.43 g. Also, in assay [6], the “expression level of neuropeptide Y in the hypothalamus” value is “decreased”. For the same molecule, the “expression level of p-CREB in the hypothalamus” value in assay [7] is “increase”.
